We go through twelve compounds from ChEMBL document CHEMBL1158187, “Five novel mono-tetrahydrofuran ring acetogenins from the seeds of Annona muricata” (J Nat Prod, 1996).

One series relates to HT-29. In words: Cytotoxicity against human HT29 cells. In kind it is functional, cell-based.
For the next series, the system named is A549. In words: Cytotoxicity against human A549 cells. Format: functional, cell-based.
A further series has as its system MCF7. The series can be described thus: Cytotoxicity against human MCF7 cells. In kind it is functional, cell-based.
Series [1] relates to Agrobacterium tumefaciens. The series can be described thus: Inhibition of growth of crown gall tumors in Agrobacterium tumefaciens with tumor-inducing plasmid on potato disk. Format: functional.
A short description of series [2]: Toxicity in Artemia salina. The following applies: in vivo. Format: organism-based.

≈ marks a conversion by molar mass, not a printed value.

For `CCCCCCCCCCCCCC[C@H](O)[C@@H]1CC[C@H]([C@H](O)CC[C@H](O)CCCCC[C@@H](O)CC2=C[C@H](C)OC2=O)O1`, the IC50 in the series with HT-29 came to 0.0053 µg/mL (≈ 0.00888 µM); with A549 it was 0.13 µg/mL (≈ 0.218 µM); with MCF7, 1.05 µg/mL (≈ 1.76 µM). Moreover, the “inhibition (INH)” value in series [1] is on record as 47%. The compound also yielded an LC50 in series [2] of 5.2 µg/mL (≈ 8.71 µM).

Take `CCCCCCCCCCCC[C@@H]1OCO[C@H](CCC[C@H](O)CCCCC[C@@H](O)CC2=C[C@H](C)OC2=O)[C@@H]2CC[C@@H]1O2`: the IC50 in the series on HT-29 came to 2.1 µg/mL (≈ 3.53 µM); in the series with A549, 0.079 µg/mL (≈ 0.133 µM); in the series on MCF7, 2.6 µg/mL (≈ 4.37 µM). In addition, in series [1], the “inhibition (INH)” value turned out to be 22%.

As to `CCCCCCCCCCCC[C@H](O)[C@@H]1CC[C@H]([C@H](O)CCCCC(=O)CCCCC[C@@H](O)CC2=C[C@H](C)OC2=O)O1`, the IC50 stood at 0.0009 µg/mL (≈ 0.00151 µM) in the series on HT-29, 0.35 µg/mL (≈ 0.588 µM) in the series on A549 and 0.29 µg/mL (≈ 0.487 µM) in the series with MCF7. Besides, the “inhibition (INH)” value in series [1] is reported as 32%. This compound returned an LC50 in series [2] of 1.8 µg/mL (≈ 3.03 µM).

In the case of `CCCCCCCCCCCC[C@H](O)[C@@H]1CC[C@H]([C@H](O)CCCC[C@H](O)CCCCC[C@@H](O)CC2=C[C@H](C)OC2=O)O1`, the IC50 came to 0.23 µg/mL (≈ 0.385 µM) with A549 and 1.18 µg/mL (≈ 1.98 µM) in the series with MCF7. Further, the “inhibition (INH)” value in series [1] is 28%. This compound also gave an LC50 in series [2] of 2.3 µg/mL (≈ 3.85 µM).

Take `CCCCCCCCCCCCCC[C@H](O)[C@@H]1CC[C@H]([C@H]2CC[C@@H](CCCCC[C@@H](O)CC3=C[C@H](C)OC3=O)OCO2)O1`: the IC50 with HT-29 was determined as 2.6 µg/mL (≈ 4.27 µM); in the series on A549, 0.53 µg/mL (≈ 0.87 µM); in the series with MCF7 it was 0.52 µg/mL (≈ 0.854 µM). Further, the “inhibition (INH)” value in series [1] came to 21%.

On to `CCCCCCCCCCCC[C@@H](O)[C@H]1CC[C@H]([C@H]2CC[C@H](CCCCCCC[C@@H](O)CC3=C[C@H](C)OC3=O)OCO2)O1` [ARIANACIN FORMAL], for which the IC50 was determined as 1 µg/mL (≈ 1.64 µM) in the series on HT-29, 0.02 µg/mL (≈ 0.0328 µM) in the series on A549 and 8.5 µg/mL (≈ 14 µM) with MCF7. Also, the “inhibition (INH)” value in series [1] stood at 28%.

As to `CCCCCCCCCCCC[C@@H](O)[C@H]1CC[C@H]([C@H](O)CC[C@@H](O)CCCCCCC[C@@H](O)CC2=C[C@H](C)OC2=O)O1` [ARIANACIN], the IC50 in the series on HT-29 was determined as 4.4 µg/mL (≈ 7.37 µM); with A549, 0.0047 µg/mL (≈ 0.00787 µM); with MCF7 it was 0.4 µg/mL (≈ 0.67 µM). For the same compound, in series [1], the “inhibition (INH)” value is given as 26%. The LC50 in series [2] is 7.1 µg/mL (≈ 11.9 µM).

Consider `COc1cccc2c1C(=O)c1c(O)c3c(c(O)c1C2=O)C[C@@](O)(C(=O)CO)C[C@@H]3O[C@H]1C[C@H](N)[C@H](O)[C@H](C)O1` [DOXORUBICIN], for which the values for the IC50 in the series on HT-29 and in the series on A549 were 0.00051 µg/mL (≈ 0.000938 µM) and 0.0004 µg/mL (≈ 0.000736 µM), respectively.

With `CCCCCCCCCCCCCC[C@@H](O)[C@H]1CC[C@H]([C@H]2CC[C@@H](CCCCC[C@@H](O)CC3=C[C@H](C)OC3=O)OCO2)O1` [GONIOTHALAMICIN FORMAL], the IC50 in the series on HT-29 was 1.13 µg/mL (≈ 1.86 µM); with A549, 0.025 µg/mL (≈ 0.0411 µM); with MCF7 it was 1.03 µg/mL (≈ 1.69 µM).

As for `CCCCCCCCCCCCCC[C@@H](O)[C@H]1CC[C@H]([C@H](O)CC[C@H](O)CCCCC[C@@H](O)CC2=C[C@H](C)OC2=O)O1` [GONIOTHALAMICIN], the IC50 amounted to 0.0011 µg/mL (≈ 0.00184 µM) in the series with HT-29, 0.008 µg/mL (≈ 0.0134 µM) in the series with A549 and 0.057 µg/mL (≈ 0.0955 µM) in the series with MCF7. The LC50 in series [2] amounted to 0.6 µg/mL (≈ 1.01 µM).

Turning to `CCCCCCCCCCCC[C@@H](O)[C@H]1CC[C@H]([C@H]2CC[C@@H](CCCCCCC[C@@H](O)CC3=C[C@H](C)OC3=O)OCO2)O1` [JAVORICIN FORMAL], the IC50 with HT-29 worked out at 5.6 µg/mL (≈ 9.2 µM); with A549, 0.02 µg/mL (≈ 0.0328 µM); with MCF7, 2.9 µg/mL (≈ 4.76 µM). In addition, the “inhibition (INH)” value in series [1] is on record as 31%.

With `CCCCCCCCCCCC[C@@H](O)[C@H]1CC[C@H]([C@H](O)CC[C@H](O)CCCCCCC[C@@H](O)CC2=C[C@H](C)OC2=O)O1` [JAVORICIN], the figures for the IC50 in the series on HT-29, in the series with A549 and in the series on MCF7 were 1.8 µg/mL (≈ 3.02 µM), 0.017 µg/mL (≈ 0.0285 µM) and 0.23 µg/mL (≈ 0.385 µM), respectively. Further, the “inhibition (INH)” value in series [1] was determined as 47%. In addition, in series [2], the LC50 stood at 4.9 µg/mL (≈ 8.21 µM).
